From PubChem BioAssay (NCI)
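Test compounds were applied to cells in 96-well plates for 48 hours at 5 doses. Abbreviation: GI50, concentration required for 50% inhibition of growth. TGI: concentration producing complete growth inhibition.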

Experiments:
Test in all cases: growth of human tumour cells (NCI), 48 h
[1] = system: 786-0 renal
[2] = system: A549 NSCLC
[3] = system: HCT-15 colon
[4] = system: HL-60(TB) leukemia
[5] = system: HS 578T breast
[6] = system: M14 melanoma
[7] = system: NCI-H226 lung
[8] = system: NCI-H23 lung
[9] = system: NCI-H460 lung
[10] = system: NCI-H522 lung
[11] = system: SW-620 colon
[12] = system: SNB-19 CNS

Structure (SMILES) | TGI [1] [µM] | TGI [2] [µM] | GI50 [3] [µM] | TGI [3] [µM] | GI50 [4] [µM] | TGI [4] [µM] | TGI [5] [µM] | TGI [6] [µM] | TGI [7] [µM] | GI50 [8] [µM] | TGI [8] [µM] | TGI [9] [µM] | TGI [10] [µM] | TGI [11] [µM] | TGI [12] [µM]
COc1cc(OC)c2[nH]c3c(O)c(-c4c(C)cc5c([nH]c6c(OC)cc(OC)cc65)c4O)c(C)cc3c2c1 | 15.1 | 13.3 | 8.28 | 16.9 | 2.82 | 10.5 | 20.2 | 15.5 | 17.6 | 8.2 | 16.7 | 16.6 | 16.6 | 20.3 | –
ClCCCCCc1c2nc(c(CCCCCCl)c3ccc([nH]3)c(CCCCCCl)c3ccc([nH]3)c(CCCCCCl)c3nc1C=C3)C=C2 | > 100 | > 100 | – | > 100 | – | > 100 | > 100 | > 100 | > 100 | – | > 100 | > 100 | > 100 | > 100 | > 100
CNc1nc(C(N)=O)c(N)s1 | > 100 | > 100 | – | > 100 | – | > 100 | > 100 | > 100 | > 100 | – | > 100 | > 100 | > 100 | > 100 | > 100
O=C1CC(NCc2ccccc2)c2c(Cl)sc(Cl)c21 (stereo not given) | 57.8 | > 100 | – | 46.9 | – | 41.6 | > 82.5 | > 63.6 | > 63.5 | – | 39.5 | > 100 | 18.3 | > 87.4 | > 100
COc1cccc(C2c3cc4c(cc3OC(Nc3ccccc3)C2C)OCO4)c1OC (stereo not given) | 22.9 | > 100 | – | > 100 | – | 6.26 | 61.4 | > 100 | 12.1 | – | > 100 | > 100 | 95 | > 100 | > 100
O=CN1CCN(C(=O)c2ccc(Cl)c(Cl)c2)C1=S | 17.6 | 35 | – | 43 | – | 45.7 | > 100 | 31.4 | 39.8 | – | 41 | 36.2 | 28.7 | 42.1 | 31.7
O=[N+]([O-])c1ccc(NNN=Nc2ccc(-c3nc4ccccc4s3)cc2)c([N+](=O)[O-])c1 | 50.6 | > 100 | – | 66.4 | – | 69.9 | > 100 | 35.2 | 69.4 | – | 59.3 | 56.3 | 70.9 | > 100 | > 100
c1ccc([I+]c2ccccc2)cc1 | > 100 | > 100 | – | > 100 | – | > 100 | > 100 | > 100 | > 100 | – | > 100 | > 100 | > 100 | > 100 | > 100
CCOc1cc2c(c(OCC)c1O)CC[C@@H]1[C@@H]2CC[C@]2(C)[C@@H](O)CC[C@@H]12 | > 100 | > 100 | – | 14 | – | 1.86 | 95.1 | > 100 | > 100 | – | 41.4 | – | 23.1 | 41.7 | > 100
CCN1CN(c2ccccc2)C2(CCN(CC(CC3OCCO3)c3ccc(F)cc3)CC2)C1=O (stereo not given) | 39 | > 100 | – | > 67.5 | – | 49.3 | > 64.1 | 9.54 | 65 | – | > 57.3 | 33 | 26.6 | > 40.4 | > 92
CC(=O)N(C(C)=O)c1cc2c3c(c1)CCCN3CCC2 | > 10 | > 10 | – | > 10 | – | > 10 | > 10 | > 10 | > 10 | – | > 10 | > 10 | > 10 | > 10 | > 10
COc1ccc(NC(=S)c2ccoc2C)cc1CC(=O)OC(C)C | > 100 | > 100 | – | > 100 | – | 54.5 | > 100 | 64.3 | 68 | – | > 100 | > 100 | > 100 | > 100 | > 100
CN1CC2CN(Cc3ccccc3)CCN2c2cccnc21 (stereo not given) | > 100 | > 100 | – | > 100 | – | > 100 | > 100 | > 100 | > 100 | – | > 100 | > 100 | > 100 | > 100 | > 100
COc1ccc(/C=C2\C[C@H]3[C@@H]4CCC5=CC(=O)CC[C@]5(C)[C@H]4CC[C@]3(C)C2=O)cc1OC | > 100 | > 100 | – | > 100 | – | 6.91 | > 100 | > 100 | > 100 | – | > 100 | > 100 | 9.87 | > 100 | > 100
Cn1c(N)nc(-c2ccc(Cl)cc2)c1SSc1c(-c2ccc(Cl)cc2)nc(N)n1C | 3.43 | 27.2 | – | 3.44 | – | 2.92 | > 100 | 3.78 | 83.5 | – | 3.37 | 15.3 | 3.62 | 4.03 | 27.8
CCOC(=O)C(Cl)(NC(=O)OCc1ccccc1)C(F)(F)F (stereo not given) | > 100 | > 100 | – | > 100 | – | > 100 | > 100 | > 100 | > 100 | – | > 100 | – | > 100 | > 100 | > 100
CC(=O)CC1=C(OC(C)C)C2(OCCO2)C1O (stereo not given) | > 100 | > 100 | – | > 100 | – | > 100 | > 100 | > 100 | > 100 | – | > 100 | > 100 | > 100 | > 100 | > 100
O=C(Nc1ccc(Cl)cc1)c1cc(S(=O)(=O)Nc2nnc3c(Cl)cc(C(F)(F)F)cn23)c(S)cc1Cl | > 100 | > 100 | – | > 100 | – | > 100 | > 100 | > 100 | > 100 | – | > 100 | > 100 | > 100 | – | > 100
